Series [1] can be described thus: Toxicity in BALB/c mouse xenografted with HCT-116 cells assessed as side effect at 30 mg/kg, po and measured at 18 day. It counts as organism-based. Conditions: in vivo, 432 h.
The test system of series [2] is HCT-116. Description: Antiproliferative activity against human HCT-116 cells expressing human DHODH assessed as reduction in cell viability measured after 96 hrs by MTT assay. The settings on record: HCT-116, 96 h. It counts as functional, cell-based.
Series [3] in a line: Acute toxicity in BALB/c mouse assessed as animal death at 400 mg/kg, po measured at 2 days. Conditions: in vivo, 48 h, time 2 day. It counts as organism-based.
The subject of another series is Raji. As to the kind of experiment: Antiproliferative activity against human Raji cells assessed as cell growth inhibition measured after 96 hrs by MTT assay. It counts as functional, cell-based.
Series [4] can be described thus: Hepatotoxicity in BALB/c mouse assessed as change in blood ALP level at 400 mg/kg, po measured after 14 days by biochemical assay. The settings on record: in vivo, 336 h, time 14 day. The series is classed as toxicity, organism-based.
Series [5] is described as follows: Renal toxicity in BALB/c mouse assessed as change in blood uric acid level at 400 mg/kg, po measured after 14 days by biochemical assay. Conditions: in vivo, 336 h, time 14 day. The series is classed as organism-based.
The nature of series [6]: Toxicity in BALB/c mouse assessed as adverse effect at 400 mg/kg, po measured for 14 days. The series is classed as organism-based. The settings on record: in vivo, 336 h, time 14 day.
The target in series [7] is T1, Dihydroorotate dehydrogenase (quinone), mitochondrial (Homo sapiens, UniProt Q02127). Description: Inhibition of human N-terminal SUMO-tagged DHODH expressed in Escherichia coli BL21(DE3) using dihydroorotate substrate by DCIP based microplate reader analysis.
Series [8] can be described thus: Toxicity in BALB/c mouse assessed as histopathological changes in lungs at 400 mg/kg, po measured after 14 days by H and E staining analysis. The settings on record: in vivo, 336 h, time 14 day. It counts as organism-based.
Series [9] can be described thus: Toxicity in BALB/c mouse assessed as histopathological changes in liver at 400 mg/kg, po measured after 14 days by H and E staining analysis. Conditions: in vivo, 336 h, time 14 day. The series is classed as organism-based.
Series [10] can be described thus: Toxicity in BALB/c mouse xenografted with HCT-116 cells assessed as animal death at 30 mg/kg, po and measured at 18 day. Conditions: in vivo, 432 h. The series is classed as organism-based.
A short description of series [11]: Toxicity in BALB/c mouse assessed as histopathological changes in kidney at 400 mg/kg, po measured after 14 days by H and E staining analysis. It counts as organism-based. The settings on record: in vivo, 336 h, time 14 day.
Series [12] relates to HCT-116. As to the kind of experiment: Antitumor activity against human HCT-116 cells xenografted in nude mouse assessed as tumor growth inhibition at 30 mg/kg, po. The series is classed as functional. Conditions: read-out: TGI. On the technique in general: Xenograft models place foreign cells or tissue in a host animal.
Series [13] can be described thus: Toxicity in BALB/c mouse assessed as histopathological changes in spleen at 400 mg/kg, po measured after 14 days by H and E staining analysis. The settings on record: in vivo, 336 h, time 14 day. It counts as organism-based.
Series [14] is described as follows: Toxicity in BALB/c mouse assessed as histopathological changes in heart at 400 mg/kg, po measured after 14 days by H and E staining analysis. It counts as organism-based. The settings on record: in vivo, 336 h, time 14 day.
The nature of series [15]: Renal toxicity in BALB/c mouse assessed as change in blood uric acid level at 300 mg/kg, po measured after 14 days by biochemical assay. It counts as organism-based. The settings on record: in vivo, 336 h, time 14 day.
Series [16] is described as follows: Cytotoxicity against human HL7702 cells expressing human DHODH assessed as reduction in cell viability measured after 96 hrs by MTT assay. It counts as toxicity, cell-based. Conditions: HL7702 (L02) cells expressing human DHODH. (Formazan colour is commonly taken as a measure of viable cells.)
Series [17] can be described thus: Cytotoxicity against human HCoEpiC cells expressing human DHODH assessed as reduction in cell viability measured after 96 hrs by MTT assay. The series is classed as toxicity, cell-based.
The subject of the next series is A-375. Description: Antiproliferative activity against human A375 cells expressing human DHODH assessed as reduction in cell viability measured after 96 hrs by MTT assay. The series is classed as functional, cell-based. The settings on record: A-375, 96 h.
For a further series, the system named is KG-1. Description: Antiproliferative activity against human KG-1 cells expressing human DHODH assessed as reduction in cell viability measured after 96 hrs by MTT assay. The series is classed as functional, cell-based. The settings on record: KG-1, 96 h.
The test system of another series is SUD4. Description: Antiproliferative activity against human SU-DHL-4 cells expressing human DHODH assessed as reduction in cell viability measured after 96 hrs by MTT assay. Conditions: SU-DHL-4, 96 h. It counts as functional, cell-based.
Series [18] in a line: Hepatotoxicity in BALB/c mouse assessed as change in blood ALT level at 300 mg/kg, po measured after 14 days by biochemical assay. The series is classed as toxicity, organism-based. Conditions: in vivo, 336 h, time 14 day.
Series [19] has as its target T1, Dihydroorotate dehydrogenase (quinone), mitochondrial. As to the kind of experiment: Inhibition of human N-terminal SUMO-tagged DHODH expressed in Escherichia coli BL21(DE3) at 100 nM using dihydroorotate as substrate by DCIP based microplate reader analysis relative to control.
Series [20] has the same target. As to the kind of experiment: Inhibition of human N-terminal SUMO-tagged DHODH expressed in Escherichia coli BL21(DE3) at 1 uM using dihydroorotate as substrate by DCIP based microplate reader analysis relative to control.
The nature of series [21]: Hepatotoxicity in BALB/c mouse assessed as change in blood ALP level at 300 mg/kg, po measured after 14 days by biochemical assay. The series is classed as toxicity, organism-based. Conditions: in vivo, 336 h, time 14 day.
The nature of series [22]: Hepatotoxicity in BALB/c mouse assessed as change in blood AST level at 300 mg/kg, po measured after 14 days by biochemical assay. Conditions: in vivo, 336 h, time 14 day. The series is classed as toxicity, organism-based.
The next series concerns Kasumi 1. Description: Antiproliferative activity against human Kasumi 1 cells expressing human DHODH assessed as reduction in cell viability measured after 96 hrs by MTT assay. The series is classed as functional, cell-based. The settings on record: Kasumi 1, 96 h.
A short description of series [23]: Acute toxicity in BALB/c mouse assessed as average body weight at 300 mg/kg, po measured after 14 days. It counts as organism-based. Conditions: in vivo, 336 h, time 14 day.
In another series the test system is U-937. As to the kind of experiment: Antiproliferative activity against human U-937 cells expressing human DHODH assessed as reduction in cell viability measured after 96 hrs by MTT assay. The series is classed as functional, cell-based. Conditions: U-937, 96 h.

Molecules are shown by their SMILES.

T1 sequence (Q02127 whole entry): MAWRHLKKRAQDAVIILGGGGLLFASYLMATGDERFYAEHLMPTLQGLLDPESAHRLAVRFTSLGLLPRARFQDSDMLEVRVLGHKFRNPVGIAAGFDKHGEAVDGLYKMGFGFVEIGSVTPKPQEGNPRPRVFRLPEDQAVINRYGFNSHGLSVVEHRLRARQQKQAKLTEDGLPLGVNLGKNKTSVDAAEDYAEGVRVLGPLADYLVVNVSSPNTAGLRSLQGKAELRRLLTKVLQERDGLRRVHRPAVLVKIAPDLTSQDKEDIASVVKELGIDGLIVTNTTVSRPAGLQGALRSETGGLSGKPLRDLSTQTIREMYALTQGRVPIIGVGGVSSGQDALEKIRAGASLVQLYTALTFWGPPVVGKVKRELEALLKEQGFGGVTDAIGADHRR

Turning to `C/C(O)=C(\C#N)C(=O)Nc1cc(OC(C)C)c(-c2cccc(C(F)(F)F)c2)cc1F`, the Activity result in [1] was “Non-Toxic”; in series [3] it was “Toxic”; in series [4], “Toxic”; in series [5] it was “Toxic”; in series [6], “Non-Toxic”; in series [8], “Non-Toxic”. Besides, the Activity entry in series [9], in series [10], in series [11], in [13] and in series [14] was “Non-Toxic” in each case. Further, the values for the half-inhibitory concentration (IC50) (in the series with HCT-116 [2]; in the series on Raji; in series [7]) were 300 nM, 70.1 nM and 10.2 nM, respectively. The inhibition in vivo at 30 mg/kg in the series on HCT-116 [12] amounted to 54.4%.

With `CCC(C)Oc1cc(NC(=O)/C(C#N)=C(/C)O)c(F)cc1-c1cccc(C(F)(F)F)c1` (configuration not stated), the Activity entry in series [15] is “Toxic”; in series [18] it was “Toxic”; in series [21], “Toxic”; in series [22], “Toxic”; in series [23], 17.3 g. Also, the IC50 at 96 h in series [16] and in series [17] was above 10000 nM in each case. For the same compound, the IC50 (as a rule, the concentration that inhibits the measured activity by half) with HCT-116 [2] came to 270 nM; in the series with Raji, 45.5 nM; with A-375 it was 500 nM; in the series with KG-1, 990 nM; in series [7] it was 7.9 nM; in the series with SUD4, 300 nM. Besides, the concentration for half-maximal inhibition (IC50) came to 500 nM with Kasumi 1 and 560 nM in the series with U-937. Moreover, the figures for the inhibition in [19] and in series [20] were 92.4% and 99.3%, respectively.

Source of the values: ChEMBL document CHEMBL5137035 (Eur J Med Chem, 2022).
